From patent US12187684B2, “Benzimidazole derivatives as modulators of retinoid-related orphan receptor gamma (RORγ) and pharmaceutical use thereof” (Jiangsu Hengrui Medicine Co., Ltd., priority 2018, dated 2025)

Experiments:
[1] = system: IL-17 production, human PBMC cells; assay: IL-17 production assay using human PBMC; type: cell-based; conditions: human PBMC stimulated by cytostim for 3 days, IL-17 ELISA of supernatant
Description: Test Example 2. IL-17 Production Assay Using Human PBMC
• 1. Human PBMC cells (Cat No. 70025.1, Zenbio) • 2. Lymphocyte medium (Cat No. LYMPH-1, Zenbio) • 3. TexMACS (Cat No. 130-097-196, Miltenyi) • 4. Cytostim-human (Cat No. 1130-092-173, Miltenyi) • 5. Human IL-17 ELISA (Cat No. D1700, R&D systems) • 6. Tecan Infinite M1000 plate reader (Tecan)
Experimental Procedure for IL-17 Production Assay
Cryopreserved peripheral blood human mononuclear cells (PBMCs) were rapidly thawed in warmed Lymphocyte media, and centrifuged cell suspension at 1000 rpm for 10 minutes. The supernatant was removed, and the cell pellets were gently resuspended in TexMACS media.
Human PBMC cells in TexMACS media were plated at 1×10^5 each well in triplicate. The test compounds at various concentrations or vehicle control (<0.5% DMSO) were added into cell culture. The cells were stimulated by cytostim (10 μL/mL) for 3 days in a humidified, 5% CO2 incubator at 37° C.
After incubation, the cell culture supernatant was harvested, and then removed particulates by centrifugation. Human IL-17 in the supernatant was measured using human IL-17 ELISA kit according to the manufacturer's protocol. IC50 values were determined using GraphPad Prism by plotting the compounds concentration versus percent inhibition.

RORγ LBD-GST tagged = target: T1, RORγ LBD-GST tagged (Homo sapiens, UniProt P51449); assay: LanthaScreen TR-FRET RORγ coactivator assay; type: biochemical; conditions: Fluorescein-D22 coactivator peptide, 1 hour room temperature
T1 construct: RORγ LBD-GST tagged (Cat No. RORC-114H, Creative Biomart); purchased Creative Biomart RORC-114H
T1 sequence (P51449 269-508 limits assumed): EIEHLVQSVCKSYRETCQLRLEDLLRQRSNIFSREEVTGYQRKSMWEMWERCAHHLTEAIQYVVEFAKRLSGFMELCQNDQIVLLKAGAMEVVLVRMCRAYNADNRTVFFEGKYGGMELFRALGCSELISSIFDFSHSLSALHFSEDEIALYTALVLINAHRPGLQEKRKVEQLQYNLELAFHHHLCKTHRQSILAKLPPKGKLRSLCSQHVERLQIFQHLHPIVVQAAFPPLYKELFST
Procedure, shortened: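 GST-tagged RORγ LBD (25 ng/reaction) was incubated in coregulator buffer D with 5 mM DTT and compound (top 3 μM, 7-fold steps, 7 doses), then with a mix containing 0.6 μM fluorescein-D22 peptide and 8 nM Tb anti-GST antibody. After 1 h at room temperature in the dark, 520/495 nm TR-FRET was read. IC50 came from log concentration versus percent inhibition.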

## CCS(=O)(=O)c1ccc(C(CCO)c2nc3c(Cl)c(N4CCC(F)(F)CC4)c(Cl)cc3[nH]2)cc1 (single isomer, unassigned) [the longer retention time of 139 and 140, 3-(4,6-dichloro-5-(4,4-difluoropiperidin-1-yl)-1H-benzo[d]imidazol-2-yl)-3-(4-(ethylsulfonyl)phenyl)propan-1-ol]
[1]
  IC50: 0.026 µM
RORγ LBD-GST tagged
  IC50: 0.035 µM

## CCS(=O)(=O)c1ccc(C(CC(N)=O)c2nc3c(Cl)c(N4CCC(F)(F)CC4)c(Cl)cc3[nH]2)cc1 (single isomer, unassigned) [the longer retention time of 146 and 147, 3-(4,6-dichloro-5-(4,4-difluoropiperidin-1-yl)-1H-benzo[d]imidazol-2-yl)-3-(4-(ethylsulfonyl)phenyl)propanamide]
[1]
  IC50: 0.014 µM
RORγ LBD-GST tagged
  IC50: 0.004 µM

## CC(C)Oc1ccccc1-c1cc2nc(C(CC(N)=O)c3ccc(S(=O)(=O)CC4CC4)cc3)[nH]c2cc1Cl (single isomer, unassigned) [the longer retention time of 148 and 149, 3-(6-chloro-5-(2-isopropoxyphenyl)-1H-benzo[d]imidazol-2-yl)-3-(4-((cyclopropylmethyl)sulfonyl)phenyl)propanamide]
[1]
  IC50: 0.022 µM
RORγ LBD-GST tagged
  IC50: 0.083 µM

## CC(C)Oc1ccccc1-c1cc2nc(C(CCO)c3ccc(S(=O)(=O)CC4CC4)cc3)[nH]c2cc1Cl (single isomer, unassigned) [the longer retention time of 150 and 151, 3-(6-chloro-5-(2-isopropoxyphenyl)-1H-benzo[d]imidazol-2-yl)-3-(4-((cyclopropylmethyl)sulfonyl)phenyl)propan-1-ol]
[1]
  IC50: 0.031 µM
RORγ LBD-GST tagged
  IC50: 0.026 µM

## NC(=O)CC(c1ccc(S(=O)(=O)CC2CC2)cc1)c1nc2cc(-c3ccccc3OC(F)F)c(Cl)cc2[nH]1 (single isomer, unassigned) [the longer retention time of 152 and 153, 3-(6-chloro-5-(2-(difluoromethoxy)phenyl)-1H-benzo[d]imidazol-2-yl)-3-(4-((cyclopropylmethyl)sulfonyl)phenyl)propanamide]
[1]
  IC50: 0.01 µM
RORγ LBD-GST tagged
  IC50: 0.013 µM

## O=S(=O)(CC1CC1)c1ccc(C(CCO)c2nc3cc(-c4ccccc4OC(F)F)c(Cl)cc3[nH]2)cc1 (single isomer, unassigned) [the longer retention time of 155 and 156, 3-(6-chloro-5-(2-(difluoromethoxy)phenyl)-1H-benzo[d]imidazol-2-yl)-3-(4-((cyclopropylmethyl)sulfonyl)phenyl)propan-1-ol]
[1]
  IC50: 0.026 µM
RORγ LBD-GST tagged
  IC50: 0.074 µM

## O=S(=O)(CC1CC1)c1ccc(C(CCO)c2nc3cc(Cl)c(N4CCC(F)(F)CC4)c(Cl)c3[nH]2)cc1 (single isomer, unassigned) [the longer retention time of 160 and 161, 3-(4-((cyclopropylmethyl)sulfonyl)phenyl)-3-(5,7-dichloro-6-(4,4-difluoropiperidin-1-yl)-1H-benzo[d]imidazol-2-yl)propan-1-ol]
[1]
  IC50: 0.004 µM
RORγ LBD-GST tagged
  IC50: 0.003 µM

## NC(=O)CC(c1ccc(S(=O)(=O)CC2CC2)cc1)c1nc2cc(Cl)c(N3CCC(F)(F)CC3)c(Cl)c2[nH]1 (single isomer, unassigned) [the longer retention time of 162 and 163, 3-(4-((cyclopropylmethyl)sulfonyl)phenyl)-3-(5,7-dichloro-6-(4,4-difluoropiperidin-1-yl)-1H-benzo[d]imidazol-2-yl)propanamide]
[1]
  IC50: 0.029 µM
RORγ LBD-GST tagged
  IC50: 0.31 µM

## CCS(=O)(=O)c1ccc(Cc2nc3c(Cl)c(-c4ccccc4C(F)(F)F)c(Cl)cc3[nH]2)cc1 [Example 3, 4,6-dichloro-2-(4-(ethylsulfonyl)benzyl)-5-(2-(trifluoromethyl)phenyl)-1H-benzo[d]imidazole]
[1]; Homo sapiens, PBMC, 72 h
  IC50: 0.052 µM
RORγ LBD-GST tagged
  IC50: 0.373 µM

## CCS(=O)(=O)c1ccc(C(CO)c2nc3c(Cl)c(-c4ccccc4OC(F)(F)F)c(Cl)cc3[nH]2)cc1 (stereo not shown) [Example 4, 2-(4,6-dichloro-5-(2-(trifluoromethoxy)phenyl)-1H-benzo[d]imidazol-2-yl)-2-(4-(ethylsulfonyl)phenyl)ethanol]
[1]; Homo sapiens, PBMC, 72 h
  IC50: 0.053 µM
RORγ LBD-GST tagged
  IC50: 0.16 µM

## CCS(=O)(=O)c1ccc(C(O)c2nc3c(Cl)c(-c4ccccc4OC(F)(F)F)c(Cl)cc3[nH]2)cc1 (stereo not shown) [Example 5, (4,6-dichloro-5-(2-(trifluoromethoxy)phenyl)-1H-benzo[d]imidazol-2-yl)(4-(ethylsulfonyl)phenyl)methanol]
[1]; Homo sapiens, PBMC, 72 h
  IC50: 0.025 µM
RORγ LBD-GST tagged
  IC50: 0.626 µM

## CCS(=O)(=O)c1ccc(C(CO)c2nc3c(Cl)c(-c4ccccc4OC)c(Cl)cc3[nH]2)cc1 (stereo not shown) [Example 6, 2-(4,6-dichloro-5-(2-methoxyphenyl)-1H-benzo[d]imidazol-2-yl)-2-(4-(ethylsulfonyl)phenyl)ethanol]
[1]; Homo sapiens, PBMC, 72 h
  IC50: 0.022 µM
RORγ LBD-GST tagged
  IC50: 0.003 µM

## CCS(=O)(=O)c1ccc(C(O)c2nc3c(Cl)c(-c4ccccc4OC)c(Cl)cc3[nH]2)cc1 (stereo not shown) [Example 7, (4,6-dichloro-5-(2-methoxyphenyl)-1H-benzo[d]imidazol-2-yl)(4-(ethylsulfonyl)phenyl)methanol]
[1]; Homo sapiens, PBMC, 72 h
  IC50: 0.223 µM
RORγ LBD-GST tagged
  IC50: 0.086 µM

## CCS(=O)(=O)c1ccc(C(CO)c2nc3c(Cl)c(-c4ccccc4OC(C)C)c(Cl)cc3[nH]2)cc1 (stereo not shown) [Example 9, 2-(4,6-dichloro-5-(2-isopropoxyphenyl)-1H-benzo[d]imidazol-2-yl)-2-(4-(ethylsulfonyl)phenyl)ethanol]
[1]; Homo sapiens, PBMC, 72 h
  IC50: 0.01 µM
RORγ LBD-GST tagged
  IC50: 0.475 µM

## CCS(=O)(=O)c1ccc(Cc2nc3c(Cl)c(-c4ccccc4OCOC)c(Cl)cc3[nH]2)cc1 [Example 13, 4,6-dichloro-2-(4-(ethylsulfonyl)benzyl)-5-(2-(methoxymethoxy)phenyl)-1H-benzo[d]imidazole]
[1]; Homo sapiens, PBMC, 72 h
  IC50: 0.082 µM
RORγ LBD-GST tagged
  IC50: 0.675 µM

## CCS(=O)(=O)c1ccc(C(CO)c2nc3c(Cl)c(-c4ccccc4OCOC)c(Cl)cc3[nH]2)cc1 (stereo not shown) [Example 14, 2-(4,6-dichloro-5-(2-methoxymethoxyphenyl)-1H-benzo[d]imidazol-2-yl)-2-(4-(ethylsulfonyl)phenyl)ethanol]
[1]; Homo sapiens, PBMC, 72 h
  IC50: 0.022 µM
RORγ LBD-GST tagged
  IC50: 0.086 µM

## CCS(=O)(=O)c1ccc(Cc2nc3c(Cl)c(-c4ccccc4OCCOC)c(Cl)cc3[nH]2)cc1 [Example 19, 4,6-dichloro-2-(4-(ethylsulfonyl)benzyl)-5-(2-(2-methoxyethoxy)phenyl)-1H-benzo[d]imidazole]
[1]; Homo sapiens, PBMC, 72 h
  IC50: 0.343 µM
RORγ LBD-GST tagged
  IC50: 0.052 µM

## CCS(=O)(=O)c1ccc(C(CO)c2nc3c(Cl)c(-c4ccccc4OCCOC)c(Cl)cc3[nH]2)cc1 (stereo not shown) [Example 20, 2-(4,6-dichloro-5-(2-(2-methoxyethoxy)phenyl)-1H-benzo[d]imidazol-2-yl)-2-(4-(ethylsulfonyl)phenyl)ethanol]
[1]; Homo sapiens, PBMC, 72 h
  IC50: 0.056 µM
RORγ LBD-GST tagged
  IC50: 0.013 µM

## CCS(=O)(=O)c1ccc(C(O)c2nc3c(Cl)c(-c4ccccc4OCCOC)c(Cl)cc3[nH]2)cc1 (stereo not shown) [Example 21, (4,6-dichloro-5-(2-(2-methoxyethoxy)phenyl)-1H-benzo[d]imidazol-2-yl)(4-(ethylsulfonyl)phenyl)methanol]
[1]; Homo sapiens, PBMC, 72 h
  IC50: 0.453 µM
RORγ LBD-GST tagged
  IC50: 0.083 µM

## CCS(=O)(=O)c1ccc(C(O)c2nc3c(Cl)c(-c4ccccc4C#N)c(Cl)cc3[nH]2)cc1 (stereo not shown) [Example 23, 2-(4,6-dichloro-2-((4-(ethylsulfonyl)phenyl)(hydroxy)methyl)-1H-benzo[d]imidazol-5-yl)benzonitrile]
[1]; Homo sapiens, PBMC, 72 h
  IC50: 0.075 µM
RORγ LBD-GST tagged
  IC50: 0.318 µM
